# According to publication PMC8074792, “An ω-3, but Not an ω-6 Polyunsaturated Fatty Acid Decreases Membrane Dipole Potential and Stimulates Endo-Lysosomal Escape of Penetratin” (Frontiers in Cell and Developmental Biology, 2021):
# What was measured:
# JY cells = experiment: Penetratin uptake and endo-lysosomal escape, time-correlated flow cytometry; assay type: cell-based, human; conditions: 50 μM fatty acid 48 h, 5 μM AFDye532- and 5 μM NF-penetratin, 37°C, compared at 900 s, n = 5
# Description: (§1) Penetratin ([…]-amide, molecular weight 2245.75 g/mol) was synthesized manually on TentaGel R RAM (Rapp Polymere, Tübingen, Germany), a low crosslinked polystyrene PEG copolymer resin by the solid-phase method of Merrifield with standard Fmoc chemistry, as described in detail in our recent study ([Batta et al., 2020]). After coupling the last arginine, one half of the penetratin was reacted with AFDye532 N-hydroxysuccinimide ester (molecular weight 723.77 g/mol, Fluoroprobes, Scottsdale, AZ, United States), while the other half with 5(6)-carboxynaphthofluorescein N-succinimidyl ester (molecular weight 573.51 g/mol, Darmstadt, Germany). Completion of the coupling was assessed by Kaiser test, which was followed by deprotection and release from the resin. After filtration and precipitation with cold diethyl ether, the crude products were purified by preparative reversed-phase HPLC (JASCO, Victoria, BC, Canada) on a C18 column and lyophilized. The purity of the products (>95%) was assessed by reversed-phase HPLC (JASCO) equipped with an analytical C18 column. […] These values well correlated with the predicted masses of the labeled peptides (2983.59 and 2833.33, respectively).
# (§2) Total cellular penetratin uptake and endo-lysosomal escape was determined as described previously ([Batta et al., 2020]). Briefly, control THP-1 or JY cells and those treated with 50 μM ALA, GLA or SA for 48 h at 37°C were incubated in the continuous presence of 5 μM AFDye532-penetratin, 5 μM NF-penetratin and 0.25 μg/ml DAPI at 37°C in the thermostated sample holder of a FACS Aria III flow cytometer. The fluorescence intensity of DAPI was measured using an excitation at 405 nm and an emission filter 450/20 nm. AFDye532 and NF were excited at 488 and 561 nm, respectively, and their fluorescence was determined using emission filters 530/30 and 670/14 nm, respectively. Measurements started immediately after addition of DAPI and penetratin and continued for 20 min at 37°C. Experimental data were analyzed first in FCS Express. Time-correlated fluorescence intensity values of DAPI-negative living cells were exported after spectral compensation and the moving averages of samples were calculated with a window size of 10 s. […] During analysis, fluorescence intensity values were first normalized to the average intensity in the first time window, which was followed by calculation of the fluorescence ratio from the normalized values.
# THP-1 cells = experiment: as above; assay type: cell-based, human; conditions: 50 μM fatty acid 48 h, 5 μM AFDye532- and 5 μM NF-penetratin, 37°C, compared at 900 s, n = 5
# Description: as §1, §2
SMILES,ratio of NF and AFDye532 intensities (endo-lysosomal escape of penetratin) vs controls (JY cells),ratio of NF and AFDye532 intensities (endo-lysosomal escape of penetratin) vs controls (THP-1 cells)
"CC/C=C\C/C=C\C/C=C\CCCCCCCC(=O)O [ALA, α-linolenic acid]",significantly increased,significantly increased
"CCCCC/C=C\C/C=C\C/C=C\CCCCC(=O)O [GLA, γ-linolenic acid]",no significant changes,no significant changes
